Patent US6878705B2 (dated 2005)

Compound	melting point
Cn1cc(C(=O)NCc2ccc(Cl)cc2)c(=O)c2cc(CN3CCOCC3)oc21	211 to 212 °C
CN(Cc1cc2c(=O)c(C(=O)NCc3ccc(C(F)(F)F)cc3)cn(C)c2o1)C[C@@H](O)c1ccco1	113 to 115 °C
O=C(NCc1ccc(Cl)cc1)c1cn(CCc2ccccc2)c2oc(CN3CCOCC3)cc2c1=O	150 to 153 °C
CCN(CC)CCn1cc(C(=O)NCc2ccc(Cl)cc2)c(=O)c2cc(CN3CCOCC3)oc21	131 to 134 °C
CC(O)CNCc1cc2c(=O)c(C(=O)NCc3ccc(Cl)cc3)cn(C)c2o1 (stereo not shown)	172 to 173 °C
Cn1cc(C(=O)NCc2ccc(Cl)cc2)c(=O)c2cc(CN3CC[C@@H](O)C3)oc21	189 to 190 °C
CN(Cc1cc2c(=O)c(C(=O)NCc3ccc(Cl)cc3)cn(C)c2o1)CC(O)c1ccc2ccccc2n1 (stereo not shown)	154 to 159 °C (dec.)
CN(Cc1cc2c(=O)c(C(=O)NCc3ccc(Cl)cc3)cn(C)c2o1)CC(O)c1nccs1 (stereo not shown)	114 to 116 °C
CN(Cc1cc2c(=O)c(C(=O)NCc3ccc(Cl)cc3)cn(C)c2o1)CC(O)c1ccc(-c2ccccc2)o1 (stereo not shown)	115 to 119 °C
Cn1cc(C(=O)NCc2ccc(Cl)cc2)c(=O)c2ccoc21	197 to 205 °C
Cn1cc(C(=O)NCc2ccc(Cl)cc2)c(=O)c2cc(Br)oc21	232 to 233 °C
Cn1cc(C(=O)NCc2ccc(Cl)cc2)c(=O)c2cc(C#CCCO)oc21	242 to 243 °C (dec.)
Cn1cc(C(=O)NCc2ccc(Cl)cc2)c(=O)c2cc(CCCCO)oc21	157 to 160 °C
Cn1cc(C(=O)NCc2ccc(Cl)cc2)c(=O)c2cc(C#CCCCO)oc21	215 to 219 °C (dec.)
Cn1cc(C(=O)NCc2ccc(Cl)cc2)c(=O)c2cc(CCCCCO)oc21	151 to 152 °C
Cn1cc(C(=O)NCc2ccc(Cl)cc2)c(=O)c2cc(C#CC(O)c3ccccc3)oc21 (stereo not shown)	209 to 211 °C (dec.)
Cn1cc(C(=O)NCc2ccc(Cl)cc2)c(=O)c2cc(C#CCC(O)c3ccccc3)oc21 (stereo not shown)	202 to 203 °C (dec.)
Cn1cc(C(=O)NCc2ccc(Cl)cc2)c(=O)c2cc(CO)oc21	229 to 230 °C
O=C(NCc1ccc(Cl)cc1)c1cc2c(O)c(C(=O)NCc3ccc(Cl)cc3)cnc2o1	230 to 245 °C
Cn1cc(C(=O)NCc2ccc(Cl)cc2)c(=O)c2cc(CN3CCC[C@@H]3[C@@H](O)c3ccccc3)oc21 (relative stereo)	141 to 150 °C (dec.)

The remaining lines, values ahead:

melting point	Compound
152 °C	CC(O)CN(C)Cc1cc2c(=O)c(C(=O)NCc3ccc(Cl)cc3)cn(C)c2o1 (stereo not shown)
118 to 121 °C	CN(Cc1cc2c(=O)c(C(=O)NCc3ccc(Cl)cc3)cn(C)c2o1)CC(O)c1ccccc1 (stereo not shown)
117 to 122 °C	CN(Cc1cc2c(=O)c(C(=O)NCc3ccc(Cl)cc3)cn(C)c2o1)CC(O)c1ccc(O)cc1 (stereo not shown)
116 to 120 °C	COc1cccc(C(O)CN(C)Cc2cc3c(=O)c(C(=O)NCc4ccc(Cl)cc4)cn(C)c3o2)c1 (stereo not shown)
145 to 149 °C	CN(Cc1cc2c(=O)c(C(=O)NCc3ccc(Cl)cc3)cn(C)c2o1)CC(O)c1cccnc1 (stereo not shown)
130 to 132 °C	Cc1ccc(C(O)CN(C)Cc2cc3c(=O)c(C(=O)NCc4ccc(Cl)cc4)cn(C)c3o2)o1 (stereo not shown)
93 to 97 °C	CN(Cc1cc2c(=O)c(C(=O)NCc3ccc(Cl)cc3)cn(C)c2o1)CC(O)c1ccoc1 (stereo not shown)
176 to 179 °C	CN(Cc1cc2c(=O)c(C(=O)NCc3ccc(Cl)cc3)cn(C)c2o1)CC(O)c1cc2ccccc2o1 (stereo not shown)
145 to 147 °C	CN(Cc1cc2c(=O)c(C(=O)NCc3ccc(Cl)cc3)cn(C)c2o1)CC(O)c1cccs1 (stereo not shown)
122 to 124 °C (dec.)	CN(Cc1cc2c(=O)c(C(=O)NCc3ccc(Cl)cc3)cn(C)c2o1)CC(O)c1cccn1C (stereo not shown)
190 to 195 °C (dec.)	CN(Cc1cc2c(=O)c(C(=O)NCc3ccc(Cl)cc3)cn(C)c2o1)CC(O)c1ccc(C#N)s1 (stereo not shown)
140 to 140.5 °C	Cc1cc(C(O)CN(C)Cc2cc3c(=O)c(C(=O)NCc4ccc(Cl)cc4)cn(C)c3o2)oc1C (stereo not shown)
148 to 151 °C	CN(Cc1cc2c(=O)c(C(=O)NCc3ccc(Cl)cc3)cn(C)c2o1)CC(O)c1cnccn1 (stereo not shown)
127 to 129 °C	CN(Cc1cc2c(=O)c(C(=O)NCc3ccc(Cl)cc3)cn(C)c2o1)C[C@@H](O)c1ncccn1
141 to 148 °C	CN(Cc1cc2c(=O)c(C(=O)NCc3ccc(Cl)cc3)cn(C)c2o1)CC(CO)c1ccccc1 (stereo not shown)
130 to 132 °C	CN(Cc1cc2c(=O)c(C(=O)NCc3ccc(Cl)cc3)cn(C)c2o1)CC(O)c1ccccn1 (stereo not shown) [41]
133 to 138 °C	CN(Cc1cc2c(=O)c(C(=O)NCc3ccc(Cl)cc3)cn(C)c2o1)CC(O)c1ccccn1 (stereo not shown) [42]
